Experimental findings from patent US10519211B2, “Compounds as peptidic GLP1/glucagon/GIP receptor agonists” (SANOFI, priority 2016, dated 2019) are described below.

Numbered stars: 1 amine (or outer) side, 2 acyl side, 3 side chain; on linkers, the order of the positions; unused ones are H or OH. Square brackets hold non-standard residues; d marks the D form. Side chains are listed from the residue outwards. Peptide text beside a SMILES is read from it. * marks the point of attachment. Adipoyl(4R-palmitoylamino) = CCCCCCCCCCCCCCCC(=O)N[C@H](CCC(=O)*)CC(=O)O; γGlu = O=C(O)[C@H](CCC(=O)[*:2])N[*:1]; Palmitoyl = CCCCCCCCCCCCCCCC(=O)*; AEEA = NCCOCCOCC(=O)O; Aib = CC(C)(N)C(=O)O

What all share (assay type): physicochemical
The nature of data set [1]: Chemical stability assessment (UPLC-UV, relative purity loss). The settings on record: 1 mg/ml, 25 mM acetate buffer pH 4.5 with m-cresol (buffer system A). Here is the method: Prior to the chemical stability measurement of a peptide batch, its purity was determined through UPLC/MS. For stability testing the target concentration was 1 mg pure compound/ml. Therefore solutions from solid samples were prepared in a buffer system with a concentration of 1 mg/mL compound based on the previously determined % purity:
Chemical stability buffer system A) 25 mM acetate buffer pH4.5, 3 mg/mL L-Methionine, 2.7 mg/mL m-cresol, 18 mg/mL Glycerol 85%
Peptide solutions were filtered through […] pore size and filled into aliquots under aseptic conditions. At starting point UPLC-UV was performed by injection of 2 μl of the undiluted sample.
For chemical stability testing, aliquots were stored for 28 days at Sand 40° C. After this time course the samples were centrifuged for 15 min at 2500 RCF. Then 2 μl of the undiluted supernatant were analysed with UPLC-UV.
The chemical stability was rated through the relative loss of purity calculated by the equation: [(purity at starting point)−(purity after 28 days at X° C.)]/(purity at starting point)]*100%
The purity is calculated as [(peak area peptide)/(total peak area)]*100%
Peptide samples were prepared in Chemical stability buffer system A and chemical stability was assessed as described in Methods.

Data set [2] is described as follows: Solubility assessment (UPLC-UV). Particulars: acetate buffer pH 4.5, 2.7 mg/ml m-cresol (buffer system A), target 10 mg/ml. How it is done: Prior to the solubility measurement of a peptide batch, its purity was determined through UPLC/MS.
Therefore solutions from solid samples were prepared in a buffer systems with a concentration of 10 mg/mL compound based on the previously determined % purity:
Solubility buffer system A) Acetate Buffer pH 4.5, 100 mM sodium acetate trihydrate, 2.7 mg/ml m-Cresol
UPLC-UV was performed after 1 hour of gentle agitation from the supernatant, which was obtained after 15 min of centrifugation at 2500 RCF (relative centrifugal acceleration).
The solubility was determined by the comparison of the UV peak area of 2 μL-injection of a buffered sample diluted 1:10 with a standard curve of a reference peptide with known concentration. The different UV extinction coefficients of sample and reference peptide were calculated based on the different amino acid sequences and considered in the concentration calculation.
Peptide samples were prepared in solubility buffer system A and solubility was assessed as described in Methods.

Data set [3] in a line: Thioflavin T (ThT) assay for physical stability (fibrillation). The settings on record: 3 mg/ml, 100 mM acetate pH 4.5 with m-cresol, shaking at 37° C. How it is done: Investigations were carried out to determine fibrillation tendencies under stress conditions by shaking at 37° C. within Fluoroskan Ascent FL.
For the tests in Fluoroskan Ascent FL, 200 μL sample were placed into a 96 well mictrotiter plate PS, flat bottom, Greiner Fluotrac No. 655076. Plates were sealed with Scotch Tape (Quiagen). Samples were stressed by continuous cycles of 10 s shaking at 960 rpm and 50 s rest period at 37° C. The kinetic was monitored by measuring fluorescence intensity every 20 minutes.
Peptides were diluted in a buffer system to a final concentration of 3 mg/ml. 20 μL of a 10.1 mM ThT solution in H2O were added to 2 mL of peptide solution to receive a final concentration of 100 μM ThT. For each sample eight replicates were tested.
Tht buffer system A) 100 mM Acetate pH 4.5 including m-cresol (100 mM Natriumacetat trihydrat, pH adjustment using 2N CH3COOH, 2.7 mg/mL m-cresol) Tht buffer system B) 100 mM citrate buffer pH 6.0
Lag time in hours in Thioflavin T (ThT) assay of peptide samples was determined in Tht buffer system A as described in Methods.

`CCCCCCCCCCCCCCCC(=O)N[C@@H](CCC(=O)N[C@@H](CCC(=O)NCCCC[C@H](NC(=O)[C@H](CC(C)C)NC(=O)[C@H](CCCCN)NC(=O)[C@H](CO)NC(=O)[C@H](CC(C)C)NC(=O)[C@H](CC(=O)O)NC(=O)[C@H](CO)NC(=O)[C@@H](NC(=O)[C@H](Cc1ccccc1)NC(=O)[C@@H](NC(=O)CNC(=O)[C@H](CCC(N)=O)NC(=O)C(C)(C)NC(=O)[C@@H](N)Cc1c[nH]cn1)[C@@H](C)O)[C@@H](C)O)C(=O)N[C@@H](CCC(=O)O)C(=O)N[C@@H](CCC(=O)O)C(=O)N[C@@H](CCC(N)=O)C(=O)N[C@@H](CCCNC(=N)N)C(=O)N[C@@H](CCC(N)=O)C(=O)NC(C)(C)C(=O)N[C@@H](CCC(=O)O)C(=O)N[C@@H](Cc1ccccc1)C(=O)N[C@H](C(=O)N[C@@H](CCC(=O)O)C(=O)N[C@@H](Cc1c[nH]c2ccccc12)C(=O)N[C@@H](CC(C)C)C(=O)N[C@@H](CCCCN)C(=O)N[C@@H](C)C(=O)N[C@H](C)C(=O)NCC(=O)N[C@@H](Cc1c[nH]cn1)C(=O)N1CCC[C@H]1C(=O)N[C@@H](CO)C(=O)NC(C)(C)C(=O)N[C@@H](CCCCN)C(=O)N1CCC[C@H]1C(=O)N1CCC[C@H]1C(=O)N1CCC[C@H]1C(=O)N[C@@H](CCCCN)C(N)=O)[C@@H](C)CC)C(=O)O)C(=O)O` [SEQ ID NO: 11, H-Aib-Q-G-T-F-T-S-D-L-S-K-L-K[gGlu-gGlu-Palm]-E-E-Q-R-Q-Aib-E-F-I-E-W-L-K-A-dAla-G-H-P-S-Aib-K-P-P-P-K-NH2] (H-H[Aib]QGTFTSDLSKLK([γGlu-γGlu-Palmitoyl])EEQRQ[Aib]EFIEWLKA[dA]GHPS[Aib]KPPPK-NH2): the “Chemical stability [relative purity loss 28 days 40° C.] (%) at pH 4.5” value in data set [1] was 7.2%. In data set [2], the solubility at 1 h was > 9.9 mg/mL. Moreover, in data set [3], the “Lag time before increase” value is >45 h.
`CCCCCCCCCCCCCCCC(=O)NCCOCCOCC(=O)N[C@@H](CCC(=O)N[C@@H](CCC(=O)NCCCC[C@H](NC(=O)[C@H](CC(C)C)NC(=O)[C@H](CCCCN)NC(=O)[C@H](CO)NC(=O)[C@H](CC(C)C)NC(=O)[C@H](CC(=O)O)NC(=O)[C@H](CO)NC(=O)[C@@H](NC(=O)[C@H](Cc1ccccc1)NC(=O)[C@@H](NC(=O)CNC(=O)[C@H](CCC(N)=O)NC(=O)C(C)(C)NC(=O)[C@@H](N)Cc1c[nH]cn1)[C@@H](C)O)[C@@H](C)O)C(=O)N[C@@H](CCC(=O)O)C(=O)N[C@@H](CCCCN)C(=O)N[C@@H](CCC(N)=O)C(=O)N[C@@H](CCCNC(=N)N)C(=O)N[C@@H](CCC(N)=O)C(=O)NC(C)(C)C(=O)N[C@@H](CCC(=O)O)C(=O)N[C@@H](Cc1ccccc1)C(=O)N[C@H](C(=O)N[C@@H](CCC(=O)O)C(=O)N[C@@H](Cc1c[nH]c2ccccc12)C(=O)N[C@@H](CC(C)C)C(=O)N[C@@H](CCCCN)C(=O)N[C@@H](C)C(=O)NCC(=O)NCC(=O)N[C@@H](Cc1c[nH]cn1)C(=O)N1CCC[C@H]1C(=O)N[C@@H](CO)C(=O)NC(C)(C)C(=O)N[C@@H](CCCCN)C(=O)N1CCC[C@H]1C(=O)N1CCC[C@H]1C(=O)N1CCC[C@H]1C(=O)N[C@@H](CCCCN)C(N)=O)[C@@H](C)CC)C(=O)O)C(=O)O` [SEQ ID NO: 16, H-Aib-Q-G-T-F-T-S-D-L-S-K-L-K[gGlu-gGlu-AEEA-Palm]-E-K-Q-R-Q-Aib-E-F-I-E-W-L-K-A-G-G-H-P-S-Aib-K-P-P-P-K-NH2] (H-H[Aib]QGTFTSDLSKLK([γGlu-γGlu-AEEA-Palmitoyl])EKQRQ[Aib]EFIEWLKAGGHPS[Aib]KPPPK-NH2): in data set [3], the “Lag time before increase” value is reported as >45 h.
Turning to `CCCCCCCCCCCCCCCC(=O)N[C@H](CCC(=O)NCCOCCOCC(=O)N[C@@H](CCC(=O)NCCCC[C@H](NC(=O)[C@H](CC(C)C)NC(=O)[C@H](CCCCN)NC(=O)[C@H](CO)NC(=O)[C@H](CC(C)C)NC(=O)[C@H](CC(=O)O)NC(=O)[C@H](CO)NC(=O)[C@@H](NC(=O)[C@H](Cc1ccccc1)NC(=O)[C@@H](NC(=O)CNC(=O)[C@H](CCC(N)=O)NC(=O)C(C)(C)NC(=O)[C@@H](N)Cc1c[nH]cn1)[C@@H](C)O)[C@@H](C)O)C(=O)N[C@@H](CCC(=O)O)C(=O)N[C@@H](CCCCN)C(=O)N[C@@H](CCC(N)=O)C(=O)N[C@@H](CCCNC(=N)N)C(=O)N[C@@H](CCC(N)=O)C(=O)NC(C)(C)C(=O)N[C@@H](CCC(=O)O)C(=O)N[C@@H](Cc1ccccc1)C(=O)N[C@H](C(=O)N[C@@H](CCC(=O)O)C(=O)N[C@@H](Cc1c[nH]c2ccccc12)C(=O)N[C@@H](CC(C)C)C(=O)N[C@@H](CCCCN)C(=O)N[C@@H](C)C(=O)N[C@H](C)C(=O)NCC(=O)N[C@@H](Cc1c[nH]cn1)C(=O)N1CCC[C@H]1C(=O)N[C@@H](CO)C(=O)NC(C)(C)C(=O)N[C@@H](CCCCN)C(=O)N1CCC[C@H]1C(=O)N1CCC[C@H]1C(=O)N1CCC[C@H]1C(=O)N[C@@H](CCCCN)C(N)=O)[C@@H](C)CC)C(=O)O)CC(=O)O` [SEQ ID NO: 21, H-Aib-Q-G-T-F-T-S-D-L-S-K-L-K[gGlu-AEEA-gAAA-Palm]-E-K-Q-R-Q-Aib-E-F-I-E-W-L-K-A-dAla-G-H-P-S-Aib-K-P-P-P-K-NH2] (H-H[Aib]QGTFTSDLSKLK([γGlu-AEEA-Adipoyl(4R-palmitoylamino)])EKQRQ[Aib]EFIEWLKA[dA]GHPS[Aib]KPPPK-NH2), the “Lag time before increase” value in data set [3] is listed as >45 h.
Turning to `CCCCCCCCCCCCCCCC(=O)N[C@H](CCC(=O)NCCOCCOCC(=O)N[C@@H](CCC(=O)NCCCC[C@H](NC(=O)[C@H](CC(C)C)NC(=O)[C@H](CCCCN)NC(=O)[C@H](CO)NC(=O)[C@H](CC(C)C)NC(=O)[C@H](CC(=O)O)NC(=O)[C@H](CO)NC(=O)[C@@H](NC(=O)[C@H](Cc1ccccc1)NC(=O)[C@@H](NC(=O)CNC(=O)[C@H](CCC(N)=O)NC(=O)C(C)(C)NC(=O)[C@@H](N)Cc1c[nH]cn1)[C@@H](C)O)[C@@H](C)O)C(=O)N[C@@H](CCC(=O)O)C(=O)N[C@@H](CCC(=O)O)C(=O)N[C@@H](CCC(N)=O)C(=O)N[C@@H](CCCNC(=N)N)C(=O)N[C@@H](CCC(N)=O)C(=O)NC(C)(C)C(=O)N[C@@H](CCC(=O)O)C(=O)N[C@@H](Cc1ccccc1)C(=O)N[C@H](C(=O)N[C@@H](CCC(=O)O)C(=O)N[C@@H](Cc1c[nH]c2ccccc12)C(=O)N[C@@H](CC(C)C)C(=O)N[C@@H](CCCCN)C(=O)N[C@@H](C)C(=O)NCC(=O)NCC(=O)N[C@@H](Cc1c[nH]cn1)C(=O)N1CCC[C@H]1C(=O)N[C@@H](CO)C(=O)NC(C)(C)C(=O)N[C@@H](CCCCN)C(=O)N1CCC[C@H]1C(=O)N1CCC[C@H]1C(=O)N1CCC[C@H]1C(=O)N[C@@H](CCCCN)C(N)=O)[C@@H](C)CC)C(=O)O)CC(=O)O` [SEQ ID NO: 22, H-Aib-Q-G-T-F-T-S-D-L-S-K-L-K[gGlu-AEEA-gAAA-Palm]-E-E-Q-R-Q-Aib-E-F-I-E-W-L-K-A-G-G-H-P-S-Aib-K-P-P-P-K-NH2] (H-H[Aib]QGTFTSDLSKLK([γGlu-AEEA-Adipoyl(4R-palmitoylamino)])EEQRQ[Aib]EFIEWLKAGGHPS[Aib]KPPPK-NH2), the “Lag time before increase” value in data set [3] is recorded as >45 h.
